In PubChem BioAssay (NCI):
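Tested at 5 concentrations; 48 h exposure; 96-well plates; endpoints linearly interpolated, else capped at highest concentration. Here, GI50 denotes the concentration required for 50% inhibition of growth. TGI is the concentration that stops growth completely.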

Tests used:
Test in all cases: NCI-60 cell line screen, 48 h
[1] = tested on: OVCAR-5 ovarian
[2] = tested on: HCT-15 colon
[3] = tested on: K-562 leukemia
[4] = tested on: TK-10 renal
[5] = tested on: BT-549 breast
[6] = tested on: 786-0 renal
[7] = tested on: U251 CNS
[8] = tested on: MDA-MB-468 breast
[9] = tested on: A498 renal
[10] = tested on: SK-MEL-28 melanoma
[11] = tested on: MALME-3M melanoma
[12] = tested on: CAKI-1 renal
[13] = tested on: A549 NSCLC
[14] = tested on: M14 melanoma
[15] = tested on: SF-268 CNS
[16] = tested on: NCI-H226 lung
[17] = tested on: UACC-257 melanoma
[18] = tested on: CCRF-CEM leukemia
[19] = tested on: HCT-116 colon
[20] = tested on: HS 578T breast
[21] = tested on: OVCAR-4 ovarian
[22] = tested on: HT29 colon
[23] = tested on: DU-145 prostate
[24] = tested on: OVCAR-8 ovarian
[25] = tested on: NCI-H460 lung
[26] = tested on: OVCAR-3 ovarian
[27] = tested on: NCI/ADR-RES ovarian
[28] = tested on: IGROV1 ovarian
[29] = tested on: MOLT-4 leukemia
[30] = tested on: SF-539 CNS
[31] = tested on: EKVX NSCLC
[32] = tested on: SW-620 colon
[33] = tested on: SK-MEL-5 melanoma
[34] = tested on: SF-295 CNS
[35] = tested on: SK-OV-3 ovarian
[36] = tested on: SR leukemia
[37] = tested on: COLO 205 colon
[38] = tested on: NCI-H522 lung
[39] = tested on: KM12 colon
[40] = tested on: T-47D breast
[41] = tested on: HOP-62 NSCLC
[42] = tested on: LOX IMVI melanoma
[43] = tested on: HCC-2998 colon
[44] = tested on: HL-60(TB) leukemia
[45] = tested on: HOP-92 NSCLC
[46] = tested on: SNB-19 CNS
[47] = tested on: MDA-MB-435
[48] = tested on: MCF7 breast
[49] = tested on: NCI-H23 lung
[50] = tested on: RPMI-8226 leukemia
[51] = tested on: RXF 393 renal
[52] = tested on: UACC-62 melanoma
[53] = tested on: PC-3 prostate
[54] = tested on: ACHN renal
[55] = tested on: SN12C renal

What does the source list for `N#CC1=C(c2ccco2)Nc2c(c(-c3ccccc3)nn2-c2ccccc2)C12C(=O)Nc1ccc(Cl)cc12` (stereo not given)?
GI50 [1]: 23.8 µM; TGI [1]: > 100 µM; GI50 [2]: 19.6 µM; TGI [2]: > 100 µM; GI50 [3]: 16.6 µM; TGI [3]: > 100 µM; GI50 [4]: 15 µM; TGI [4]: 30.6 µM; GI50 [5]: 12.2 µM; TGI [5]: 28.2 µM; GI50 [6]: 16.2 µM; TGI [6]: 56 µM; GI50 [7]: 13.3 µM; TGI [7]: 29.2 µM; GI50 [8]: 19 µM; TGI [8]: 64.7 µM; GI50 [9]: 14.5 µM; TGI [9]: 30.9 µM; GI50 [10]: 15.5 µM; TGI [10]: 33 µM; GI50 [11]: 14.7 µM; TGI [11]: 29.8 µM; GI50 [12]: 29.5 µM; TGI [12]: > 100 µM; GI50 [13]: 11.6 µM; TGI [13]: 25.1 µM; GI50 [14]: 15 µM; TGI [14]: 32.7 µM; GI50 [15]: 17.8 µM; TGI [15]: 90.1 µM; GI50 [16]: 17.5 µM; TGI [16]: 50.2 µM; GI50 [17]: 16.6 µM; TGI [17]: 41.4 µM; GI50 [18]: 49.7 µM; TGI [18]: > 100 µM; GI50 [19]: 13.1 µM; TGI [19]: 26 µM; GI50 [20]: 12.6 µM; TGI [20]: 40.9 µM; GI50 [21]: 15.4 µM; TGI [21]: 33.3 µM; GI50 [22]: 14.6 µM; TGI [22]: 30.2 µM; GI50 [23]: 19.4 µM; TGI [23]: 43.9 µM; GI50 [24]: 15.7 µM; TGI [24]: 30.7 µM; GI50 [25]: 14.1 µM; TGI [25]: 31.8 µM; GI50 [26]: 20.4 µM; TGI [26]: 61 µM; GI50 [27]: 14.8 µM; TGI [27]: 30 µM; GI50 [28]: 16.3 µM; TGI [28]: 38.4 µM; GI50 [29]: 6.05 µM; TGI [29]: 91.2 µM; GI50 [30]: 17.9 µM; TGI [30]: 40.6 µM; GI50 [31]: 16.5 µM; TGI [31]: 66 µM; GI50 [32]: 30.3 µM; TGI [32]: > 100 µM; GI50 [33]: 18 µM; TGI [33]: 41.8 µM; GI50 [34]: 16.9 µM; TGI [34]: 56.3 µM; GI50 [35]: 15.8 µM; TGI [35]: 33.9 µM; GI50 [36]: 23.3 µM; TGI [36]: > 100 µM; GI50 [37]: 14.7 µM; TGI [37]: 29.7 µM; GI50 [38]: 14.5 µM; TGI [38]: 38.8 µM; GI50 [39]: 49.5 µM; TGI [39]: > 100 µM; GI50 [40]: 19.5 µM; TGI [40]: > 100 µM; GI50 [41]: 14.8 µM; TGI [41]: 28.9 µM; GI50 [42]: 19.2 µM; TGI [42]: 47.1 µM; GI50 [43]: 19.2 µM; TGI [43]: 58.9 µM; GI50 [44]: 15 µM; TGI [44]: > 100 µM; GI50 [45]: 12.8 µM; TGI [45]: 28.5 µM; GI50 [46]: 17.4 µM; TGI [46]: 46 µM; GI50 [47]: 34.8 µM; TGI [47]: > 100 µM; GI50 [48]: 15.7 µM; TGI [48]: 49.7 µM; GI50 [49]: 15.5 µM; TGI [49]: 32.4 µM; GI50 [50]: 18.7 µM; TGI [50]: > 100 µM; GI50 [51]: 13.2 µM; TGI [51]: 29.9 µM; GI50 [52]: 11.4 µM; TGI [52]: 28.2 µM; GI50 [53]: 12 µM; TGI [53]: 28 µM; GI50 [54]: 18.1 µM; TGI [54]: 61 µM; GI50 [55]: 17 µM; TGI [55]: 36.7 µM
